Measured values reported in patent US12631644B2, “Biomarker panel targeted to diseases due to multifactorial ontology of glycocalyx disruption” (Arterez, Inc., priority 2019, dated 2026).

Legend:
TNF-α = molecular target: T1, TNF-α (Homo sapiens, UniProt P01375); conditions: humans; 2009 Atherosclerosis 202:296-303; cited from earlier work
T1 construct: host or cells: human subjects (in vivo, endogenous TNF-α)

inflammation and plaque = test: Average disease scores (aortic sinus histology) in high-fat diet mice, Example 1; type: in vivo, mouse; conditions: FIG. 9; per group and time point; gavage 150 μmol/kg
Description: For a pilot study, forty-eight 10-week old male C57/Bl6 mice were obtained from Jackson Laboratories. Three mice were raised from 6 weeks on a regular diet and served as controls, and the remaining 45 were raised on a 60% fat diet (D12451, DIO series diet, Opensource Diets). For a bacterial dosage test, sixteen 10-week old male C57/Bl6 mice were divided into four treatment groups and maintained on a normal diet.
3,3′,4,4′-Tetrachlorobiphenyl (PCB-77) was obtained from Neosyn Laboratories. 100 mg of the dry chemical was suspended in 15.22 ml of corn oil to deliver 150 μmol/kg in 0.2 ml per mouse. […]
The hearts were prepared as frozen sections: they were mounted in blocks, and 10 μm-thick sections were cut through the aortic valve, to yield 30 sections per mouse. […] Multiple 10-μm sections at the level of the aortic sinus were analyzed for the presence of Oil Red O lipid staining, plaque size, amount of fibrous tissue, and inflammation. The percentage of the lumen occupied by the first three features was calculated using Image Pro Plus. […] The level of inflammation in each section was scored on the following scale: 0=no inflammatory cells observed, 1=few macrophages with no giant cells, 2=foam cells present, 3=foam cells with cholesterol, 4=foam cells, giant cells, and cholesterol present. […]

T1 sequence (P01375 77-233 limits assumed): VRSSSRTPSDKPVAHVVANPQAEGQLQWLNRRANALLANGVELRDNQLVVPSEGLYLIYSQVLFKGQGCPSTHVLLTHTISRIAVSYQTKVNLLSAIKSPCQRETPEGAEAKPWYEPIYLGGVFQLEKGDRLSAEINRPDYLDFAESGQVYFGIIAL

Row | Molecule | shedding of glycocalyx constituents, coagulation activation, vessel function (TNF-α) | risk factor for producing inflammation and plaque (average disease scores) (inflammation and plaque)
1 | etanercept | reduces the shedding of glycocalyx constituents, coagulation activation, and functional vessel function | –
2 | Clc1ccc(-c2ccc(Cl)c(Cl)c2)cc1Cl [PCB77, 3,3′,4,4′-Tetrachlorobiphenyl] | – | most significant risk factor to producing inflammation and plaque
